Reference: paper PMC8887546, “Design and Synthesis of Brain Penetrant Glycopeptide Analogues of PACAP With Neuroprotective Potential for Traumatic Brain Injury and Parkinsonism” (Frontiers in drug discovery, 2022)

Experiments:
[1] = test system: Sprague Dawley rats, 6-OHDA lesion; test: Unbiased stereology of TH-positive neurons in SNc (study 1); assay type: in vivo, rat; conditions: mild lesion (25%), 15 mg/kg i.p. 6 h prior to and 24 h post-lesion
Procedure: Rats were treated with 2LS98Lac or saline (vehicle) as outlined in the Schemes in Figures 9A,B via intraperitoneal (i.p.) injection (15 mg/kg). All animals were made hemi-parkinsonian with unilateral, striatal 6-hydroxydopamine (Sigma Aldrich, St. Louis, MO) injections. After surgery, behavioral assessments were done at 2- and 4-weeks post-surgery. 24 h after the last test animals were either euthanized and whole brains were harvested for future biochemical analysis or perfused and brains collected for immunohistochemistry and stereological assessment of tyrosine hydroxylase-positive (TH+) cells remaining in the SNc. In study 1: n = 16 each group were included, and all underwent the behavioral analysis: n = 16, and for the stereology in the SNc, n = 8 each group was used. In study 2: n = 23 each group were included. […]
Stereological probes were applied using a Zeiss Imager M2 microscope (Carl Zeiss, Jena, Germany) equipped with StereoInvestigator software (MBF Bioscience, VT, United States) according to previously published methods ([Corenblum et al., 2015]; [Anandhan et al., 2021]). Using the optical fractionator probe, cells were counted under the ×63 oil immersion objective by a blinded observer. TH+ cells were counted in sections 480 μm apart using a grid size of 170 × 100 μm and counting frame size of 75 × 75 μm. […]

[2] = test system: Sprague Dawley rats, 6-OHDA lesion; test: Striatal dopamine content, HPLC-EC (study 2); assay type: in vivo, rat; conditions: more severe (40%) lesion, vs vehicle
Procedure: Rats were treated with 2LS98Lac or saline (vehicle) as outlined in the Schemes in Figures 9A,B via intraperitoneal (i.p.) injection (15 mg/kg). All animals were made hemi-parkinsonian with unilateral, striatal 6-hydroxydopamine (Sigma Aldrich, St. Louis, MO) injections. After surgery, behavioral assessments were done at 2- and 4-weeks post-surgery. 24 h after the last test animals were either euthanized and whole brains were harvested for future biochemical analysis or perfused and brains collected for immunohistochemistry and stereological assessment of tyrosine hydroxylase-positive (TH+) cells remaining in the SNc. In study 1: n = 16 each group were included, and all underwent the behavioral analysis: n = 16, and for the stereology in the SNc, n = 8 each group was used. In study 2: n = 23 each group were included. […] In the 2LS98Lac group, one video at 4 weeks was lost, reducing n = 22 in this specific analysis, and for the stereology, 2 brains were damaged during processing and could not be included in the stereology of the SNc, therefore […]. For biochemical subanalyses, n = 8 each group. For the microglial morphology subanalysis n = 7 each group.
FIGURE 9 | Evaluation of neuroprotection of the PACAP glycopeptide 2LS98Lac in rat Parkinson’s disease models. (A) Scheme for study 1, using a mild PD lesion. (B) Scheme for study 2, using a moderate PD lesion. […]

SMILES: [2H]C([2H])([2H])C([2H])(C([2H])([2H])[2H])[C@]([2H])(NC(=O)[C@H](C)NC(=O)[C@H](C)NC(=O)[C@H](CC(C)C)NC(=O)[C@H](Cc1ccc(O)cc1)NC(=O)[C@H](CCCCN)NC(=O)[C@H](CCCCN)NC(=O)[C@@]([2H])(NC(=O)[C@H](C)NC(=O)[C@H](CC(C)C)NC(=O)[C@H](CCC(N)=O)NC(=O)[C@H](CCCCN)NC(=O)[C@H](CCCNC(=N)N)NC(=O)[C@H](Cc1ccc(O)cc1)NC(=O)[C@H](CCCNC(=N)N)NC(=O)[C@H](CO)NC(=O)[C@H](Cc1ccc(O)cc1)NC(=O)[C@H](CO)NC(=O)[C@H](CC(=O)O)NC(=O)[C@@H](NC(=O)[C@H](Cc1ccccc1)NC(=O)[C@@H](NC(=O)CNC(=O)[C@H](CC(=O)O)NC(=O)[C@H](CO)NC(=O)[C@@H](N)Cc1c[nH]cn1)[C@@H](C)CC)[C@@H](C)O)C([2H])(C([2H])([2H])[2H])C([2H])([2H])[2H])C(=O)N[C@@H](CC(C)C)C(=O)N[C@@H](CO[C@@H]1O[C@H](CO)[C@@H](O[C@@H]2O[C@H](CO)[C@H](O)[C@H](O)[C@H]2O)[C@H](O)[C@H]1O)C(N)=O [Compound 2LS98Lac]
- TH-positive neurons in SNc, lesioned vs intact side [1]: neuronal cell death was attenuated
- Striatal DA content [2]: no significant difference
